# Laboratory results: patent EP2323645B1, “USE OF LOW-DOSE LOCAL ANAESTHETIC OR DERIVATIVES THEREOF FOR THERAPY OF CHRONIC PAIN, ESPECIALLY MIGRAINE” (priority 2008, dated 2010)
# Tests used:
# [1] = test system: Kopfschmerzen vom Spannungstyp; assay: Comparative trial of lidocaine, mepivacaine and bupivacaine in tension-type headache (infiltration anaesthesia C1 to C3); type: in vivo, Patienten; conditions: equipotent dilution 1:5 (Lidocain 0,1 Gew.-%, Bupivacain 0,05 Gew.-%, Mepivacain 0,1 Gew.-%), twice daily for 7 days, 3 male patients, 10-point pain scale
# [2] = test system: Phantom- oder Stumpfschmerz; conditions: 0,1 - 1,0 ml of 1 % solution; Gross, Anaesthesist 1985; cited from earlier work
# Neuralgien = conditions: 5 %; Katsushi et al.; cited from earlier work
# chronischer Migräne = assay: Retrospective analysis of 84 chronic migraine patients treated with repeated deep dorsal cervico-thoracic sympathetic blocks; conditions: for Rückgang aller Schmerzen und Begleitsymptome auf: end of treatment
# Migräne = assay: Treatment of migraine by local deep paravertebral injection of low-dose lidocaine; type: in vivo, Patienten; conditions: 0,1 Gew.-% in Ringer solution, usually 2 to 4 injections per session; within a few minutes; complete freedom from pain and complaints without typical relapse tendency
# Excerpt: (§1) Art und Umfang der beklagten Schmerzen und Beschwerden bestimmen unter (ausschließlich) neuroanatomischen und funktionspathologischen Gesichtspunkten die ursachenorientierte Auswahl von Injektionsort, Injektionsmenge und Injektionstiefe sowie die Auswahl der verwendeten Injektionskanülen, z.B. innerhalb einer Bandbreite zwischen 20 und 100 mm Länge, bei grundsätzlich identischer, jedoch gegenüber herkömmlicher Verfahrensweise grundlegend veränderter, Injektionstechnik (siehe z.B. Figuren 1 bis 3).
# (§2) Vor Behandlungsbeginn werden mit Ausnahme von Benzodiazepinderivaten sämtliche "schmerz- und beschwerdespezifische" Medikamente spontan abgesetzt. Benzodiazepinderivate werden schleichend eliminiert.
# Anzahl der Injektionen und Injektionsorte sind abhängig vom aktuellen Untersuchungsbefund sowie von Patientenangaben zu Schmerzen und Beschwerden. Bevorzugt werden tiefe paravertebrale Injektionen von dorsal in antero-lateraler Stichführung in Gewebe der oberen Halswirbelsäule (s. Figur 2) oder der oberen Brustwirbelsäule (s. Figur 1) vorgenommen, je Behandlungssitzung in der Regel 2 bis 4 Injektionen.
# (s. Figur 2: Einstichpunkte im Bereich der oberen und mittleren Halswirbelsäule) • Ergebnis: Der Patient war nach 2 ½ Behandlungstagen und seither dauerhaft schmerz- und beschwerdefrei.
# [3] = test system: episodischer und chronischer Kopfschmerzen vom Spannungs-Typ; assay: Treatment of episodic and chronic tension-type headache; type: in vivo, Patienten
# Excerpt: as §1, §2
# Behandlung: Die Anzahl der Injektionen und Injektionsorte sind abhängig vom aktuellen Untersuchungsbefund sowie von Patientenangaben zu Schmerzen und Beschwerden. Bevorzugt werden tiefe paravertebrale Injektionen in Gewebe der oberen und mittleren Halswirbelsäule vorgenommen, je Behandlungssitzung in der Regel 6 bis 8 Injektionen mit gegenüber der vorbeschriebenen Migräne-Behandlung geringerer Einstichtiefe.
# [4] = test system: therapieresistenter chronischer Schulter-Arm-Schmerzen; assay: Treatment of therapy-resistant chronic shoulder-arm pain; type: in vivo, Patienten; conditions: 2 to 4 deep paravertebral injections, middle cervical spine, 0,1 Gew.-%
# Excerpt: as §1
# Behandlung: 2 bis 4 tiefe, seitengleiche paravertebrale Injektionen in Gewebe der mittleren Halswirbelsäule.
# Trigeminusneuralgie = assay: Treatment of trigeminal neuralgia; type: in vivo, Patienten; conditions: superficial wide-area injection of the affected nerve branch; as a rule; rarely one or two repeat injections needed
# Excerpt: as §1
# Behandlung: Oberflächliche, großflächig ausgebrachte Injektion des betroffenen Nervenastes am Ort seiner stärksten Irritation;
# chronisches LWS-Syndrom = assay: Treatment of therapy-resistant chronic pain of hips, legs and feet (chronic lumbar spine syndrome); type: in vivo, Patienten; conditions: single case, patient, left-sided syndrome for 10 years, repetitive injections L3 to L5 left
# Excerpt: as §1
# Behandlung: 2 bis 4 tiefe, seitengleiche paravertebrale Injektionen in Gewebe der mittleren und unteren Lendenwirbelsäule bzw. der oberen Kreuzbeinregion (: L3 bis SI alternierend).
# Aktueller Fall: • 71-jähriger Patient. Seit 10 Jahren progrediente Krankheitsentwicklung eines chronischen, linksseitigen LWS-Syndroms mit belastungsabhängigen Schmerzen und • Taubheitsgefühl in Oberschenkel und Knie sowie belastungsabhängigem, progredientem Kraftverlust des linken Beines. • Behandlung: Repetitive paravertebrale Injektionen L3 bis L5 links. • Ergebnis: Vollständige Remission aller Beschwerden nach 10 Behandlungssitzungen.
# spinaler Nozizeptoren = assay: Blockade of spinal nociceptors in healthy volunteers; type: in vivo, gesunden Probanden
# Excerpt: Die Verabreichung des hier beschriebenen niedrig-dosierten Lidocains oder eines 3-OH-oder 4-OH-Derivats davon in den hier beschriebenen niederen Konzentrationen, z.B. in der erfindungsgemäßen pharmazeutischen Zusammensetzung, kann, insbesondere in der Migräne-Therapie, durch Infiltrations-Anästhesie stattfinden, bspw. durch gezielte, simultane Infiltrations-Anästhesien an der Schädelbasis (ventrale Äste von C1) sowie der ventralen Äste der Spinal-Nerven C2 und C3 unter Anwendung einer pharmakologisch und technisch ziel- und zweckoptimierten Methode. Unter Einsatz der erfindungsgemäßen pharmazeutischen Zusammensetzungen lassen sich die oben beschriebenen Migräne-Schmerzen sowie die Symptome einer vestibulären Dysfunktion - Übelkeit und Schwindel - unabhängig von der vorbestehenden Anfallsdauer einer Migräne spontan und definitiv abortieren. Die Konzentration des dafür verwendeten Lidocains oder eines 3-OH- oder 4-OH-Derivats davon in der erfindungsgemäßen pharmazeutischen Zusammensetzung ist bevorzugt so eingestellt, dass keine motorischen oder Sensibilitäts-Störungen auftreten.
# [5] = test system: akuter kleinflächiger Verletzungen; assay: Treatment of acute small-area injuries
# [6] = test system: Menstruationsbeschwerden (Menorrhagien); conditions: as a rule after two to four further identical sessions
# chronischer Verletzungen = assay: Treatment of chronic injuries
# Occipitalisneuralgie = assay: Treatment of occipital neuralgia; type: in vivo, Patienten
# Excerpt: as §1
# Behandlung: Je nach Untersuchungsbefund oberflächliche, großflächig ausgebrachte oder tiefe Injektionen des bzw. der betroffenen Nervenäste;
# [7] = test system: neuropathischen Schmerzen; conditions: 0.2 %, repeated epidural administration, rat model; Chiyo et al. 2008; cited from earlier work
# Kopfschmerzen = conditions: 0,5 %, cervical intramuscular injection; Mellick et al. 2006; cited from earlier work
structure (smiles),measurement,setting,value
Cc1cccc(C)c1NC(=O)C1CCCCN1C (centres unmarked) [Mepivacain],Wirkung und Therapieeffekt gegenüber Lidocain,[1],etwa vergleichbare Wirkung und Therapieeffekt
same,Patienten nachweisbar effektiv behandelt,[2],ca. 80%
CCCCNc1ccc(C(=O)OCCN(C)C)cc1 [Tetracain],Behandlungsergebnis,Neuralgien,effektive Behandlung
CCN(CC)CC(=O)Nc1c(C)cccc1C [Lidocain],Rückgang aller Schmerzen und Begleitsymptome auf,chronischer Migräne; 4-week treatment group (n=21),"3,2%"
same,Rückgang aller Schmerzen und Begleitsymptome auf,chronischer Migräne; 5-week treatment group (n=43),"1,1%"
same,Rückgang aller Schmerzen und Begleitsymptome auf,chronischer Migräne; 6-week treatment group (n=20),"1,0%"
same,lang anhaltender therapeutischer Effekt,"chronischer Migräne; after end of the treatment period, together with instructions on posture and lifestyle",mindestens einigen Jahren
same,Rückgang der Gesamtsummen aller Schmerz-Intensitäten und Migräne-Begleitsymptome auf,"chronischer Migräne; end of first week, all treatment periods of 4, 5 or 6 weeks, relative to last severe attack without medication, twice daily",< 10%
same,Kopfschmerzen vom Spannungs-Typ,chronischer Migräne; patients with concomitant tension-type headache,schrittweise bis zum Ende jeder Behandlungs-Periode beseitigt
same,Allgemeinbefinden,chronischer Migräne; under treatment,positive Zunahme
same,Anfallsdurchbrechung,Migräne,vollständige Anfallsdurchbrechung
same,Ergebnis der Repetition der Behandlung,"[3]; repeated treatment, stepwise lengthening of pain-free intervals",dauerhaften Schmerzfreiheit
same,Sensibilitätsstörungen,"[3]; typical case, 0,1 Gew.-%",ohne die von Injektionen mit herkömmlicher Lokalanästhetika-Konzentration bekannten Sensibilitätsstörungen
same,Remission von Schmerzen und Beschwerden,[4],Spontane Remission
same,Ergebnis,Trigeminusneuralgie,Spontan-Remission
same,Vollständige Remission aller Beschwerden nach,chronisches LWS-Syndrom,10 Behandlungssitzungen
same,Beeinträchtigung der Sensibilität,spinaler Nozizeptoren,ohne Beeinträchtigung der Sensibilität
same,Sensibilitätsstörungen,[5]; in vivo,ohne Sensibilitätsstörungen
same,(Wund-)Heilungsdauer,"[5]; one or two repetitions at 24-hour intervals, as a rule",Halbierung der sonst üblichen (Wund-)Heilungsdauer
same,Schmerzfreiheit,[5]; superficial injections into the traumatised tissue,spontane Schmerzfreiheit
same,Blutungsmenge und Blutungsdauer,[6],vollständige Normalisierung
same,Sensibilitätsstörungen,chronischer Verletzungen; in vivo,ohne Sensibilitätsstörungen
same,Remission,chronischer Verletzungen; multiple repetition at 24-hour intervals,schrittweisen und i.d.R. vollständigen Remission
same,Schmerzreduktion,chronischer Verletzungen; targeted injections into the traumatised tissue,spontane Schmerzreduktion
same,Ergebnis Tiefe Nervenäste,"Occipitalisneuralgie; deep nerve branches, repeat injections necessary",eher verzögert
same,Ergebnis oberflächliche Nervenäste,"Occipitalisneuralgie; superficial nerve branches, as a rule, rarely one or two repeat injections",Spontan-Remission
CCCN1CCCC[C@H]1C(=O)Nc1c(C)cccc1C [Ropivacain],analgetischer Effekt,[7],lang anhaltenden analgetischen Effekt
CCCCN1CCCCC1C(=O)Nc1c(C)cccc1C (centres unmarked) [Bupivacain],Behandlungsergebnis,Kopfschmerzen,erfolgreich behandelt
same,Wirkung und Therapieeffekt gegenüber Lidocain,[1],etwa vergleichbare Wirkung und Therapieeffekt
